Data on 8 compounds can be found in patent US20190119251A1, “AMIDE-SUBSTITUTED ARYLTRIAZOLE DERIVATIVES AND USES THEREOF” (BAYER PHARMA AKTIENGESELLSCHAFT, priority 2016, published 2019).

Structures are written as SMILES.

The target of one assay is T1, human V1a receptor (Homo sapiens, UniProt P37288).
T1 construct: expressed in transfected cells; host or cells: CHO K1 (Chinese hamster ovary), also stably transfected with modified aequorin
As to the kind of experiment: Cellular in vitro assay for determining vasopressin receptor activity (V1a cell line, aequorin luminescence). The assay is classed as cell-based. As to conditions: for IC50: CHO cell line transfected with the human V1a receptor, agonist [Arg8]-vasopressin at EC50 concentration, read-out: IC50 hV1a; for ratio IC50 hV2/hV1a: ratio of cellular IC50 values, human V2 over human V1a. On the procedure: (§1) B-1. Cellular In Vitro Assay for Determining Vasopressin Receptor Activity
(§2) The identification of agonists and antagonists of the V 1 a and V2 vasopressin receptors from humans, rats and dogs as well as the quantification of the activity of the compounds of the invention is carried out using recombinant cell lines. These cell lines originally derive from a hamster's ovary epithelial cell (Chinese Hamster Ovary, CHO K1, ATCC: American Type Culture Collection, Manassas, Va. 20108, USA). The test cell lines constitutively express the human, rat or dog
(§3) V1 a or V2 receptors. In case of the Gag-coupled V 1 a receptors, cells are also stably transfected with a modified form of the calcium-sensitive photoproteins aequorin (human and rat V1a) or obelin (dog V 1 a), which, after reconstitution with the cofactor coelenterazine, emit light when there are increases in free calcium concentrations [Rizzuto R, Simpson A W, Brini M, Pozzan T, Nature 358, 325-327 (1992); Illarionov B A, Bondar V S, Illarionova V A, Vysotski E S, Gene 153 (2), 273-274 (1995)]. The resulting vasopressin receptor cells react to stimulation of the recombinantly expressed V 1 a receptors by intracellular release of calcium ions, which can be quantified by the resulting photoprotein luminescence. The Gs-coupled V2 receptors are stably transfected into cell lines expressing the gene for firefly luciferase under control of a CRE-responsible promoter. Activation of V2 receptors induces the activation of the CRE-responsive promoter via cAMP increase, thereby inducing the expression of firefly luciferase. The light emitted by photoproteins of V1a cell lines as well as the light emitted by firefly luciferase of V2 cell lines corresponds to the activation or inhibition of the respective vasopressin receptor. The bioluminescence of the cell lines is detected using a suitable luminometer [Milligan G, Marshall F, Rees S, Trends in Pharmacological Sciences 17, 235-237 (1996)].
Vasopressin V1a Receptor Cell Lines:
On the day before the assay, the cells are plated out in culture medium (DMEM/F12, 2% FCS, 2 mM glutamine, 10 mM HEPES, 5 μg/ml coelenterazine) in 384-well microtiter plates and kept in a cell incubator (96% humidity, 5% v/v CO2, 37° C.). On the day of the assay, test compounds in various concentrations are placed for 10 minutes in the wells of the microtiter plate before the agonist [Arg^8]-vasopressin at EC50 concentration is added. The resulting light signal is measured immediately in a luminometer.
(§4) Table 1A below lists individual IC50 values for the compounds of the invention (including racemic mixtures as well as separated enantiomers) that were obtained from cell lines transfected with the human V1a or V2 receptor: […]

The target in the next assay is T2, human V2 receptor (Homo sapiens, UniProt P30518).
T2 construct: expressed in transfected cells; host or cells: CHO K1 (Chinese hamster ovary) expressing firefly luciferase under a CRE-responsive promoter
T2 sequence (P30518 whole entry): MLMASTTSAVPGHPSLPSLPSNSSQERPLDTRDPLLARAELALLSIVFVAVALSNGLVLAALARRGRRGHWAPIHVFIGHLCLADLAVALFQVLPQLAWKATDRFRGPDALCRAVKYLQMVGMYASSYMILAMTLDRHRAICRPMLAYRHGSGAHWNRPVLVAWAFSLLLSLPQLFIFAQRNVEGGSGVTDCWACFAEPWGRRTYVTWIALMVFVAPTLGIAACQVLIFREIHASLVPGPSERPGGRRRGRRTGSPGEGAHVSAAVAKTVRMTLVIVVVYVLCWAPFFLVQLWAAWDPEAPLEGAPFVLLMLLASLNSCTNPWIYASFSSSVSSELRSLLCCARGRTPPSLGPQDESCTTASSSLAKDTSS
Briefly: Cellular in vitro assay for determining vasopressin receptor activity (V2 cell line, CRE-luciferase). It counts as cell-based. Conditions: CHO cell line transfected with the human V2 receptor; agonist [Arg8]-vasopressin at EC50 concentration; 3 hours incubation; read-out: IC50 hV2. On the procedure:
as §1, §2, §3
Vasopressin V2 Receptor Cell Lines:
On the day before the assay, the cells are plated out in culture medium (DMEM/F12, 2% FCS, 2 mM glutamine, 10 mM HEPES) in 384-well microtiter plates and kept in a cell incubator (96% humidity, 5% v/v CO2, 37° C.). On the day of the assay, test compounds in various concentrations and the agonist [Arg^8]-vasopressin at EC50 concentration are added together to the wells, and plates are incubated for 3 hours in a cell incubator. Upon addition of the cell lysis reagent Triton™ and the substrate luciferin, luminescence of firefly luciferase is measured in a luminometer.
as §4

T1 sequence (P37288 whole entry): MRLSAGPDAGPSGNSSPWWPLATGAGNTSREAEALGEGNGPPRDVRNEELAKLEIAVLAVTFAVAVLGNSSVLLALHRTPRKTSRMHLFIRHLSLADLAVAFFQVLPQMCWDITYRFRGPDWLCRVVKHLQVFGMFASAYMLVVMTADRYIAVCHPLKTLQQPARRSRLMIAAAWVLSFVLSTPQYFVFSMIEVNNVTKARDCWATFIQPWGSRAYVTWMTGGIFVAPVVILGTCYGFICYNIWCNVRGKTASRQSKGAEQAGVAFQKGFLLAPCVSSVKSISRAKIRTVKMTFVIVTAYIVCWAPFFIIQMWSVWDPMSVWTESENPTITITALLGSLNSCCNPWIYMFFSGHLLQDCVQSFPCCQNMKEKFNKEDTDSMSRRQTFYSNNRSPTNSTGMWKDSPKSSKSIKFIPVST

For `CCc1cccnc1-n1nc(Cn2nc(-c3ccc(Cl)cc3)n(C[C@H](O)C(F)(F)F)c2=O)nc1C(N)=O` [Example 1, 3-({3-(4-Chlorophenyl)-5-oxo-4-[(2S)-3,3,3-trifluoro-2-hydroxypropyl]-4,5-dihydro-1H-1,2,4-triazol-1-yl}methyl)-1-(3-ethylpyridin-2-yl)-1H-1,2,4-triazole-5-carboxamide], the IC50 at human V1a receptor was determined as 5.1 nM; at human V2 receptor, 8.73 nM. On human V1a receptor, the “ratio IC50 hV2/hV1a” value stood at 1.7.

On to `Cc1cccnc1-n1nc(Cn2nc(-c3ccc(Cl)cc3)n(C[C@H](O)C(F)(F)F)c2=O)nc1C(N)=O` [Example 2, 3-({3-(4-Chlorophenyl)-5-oxo-4-[(2S)-3,3,3-trifluoro-2-hydroxypropyl]-4,5-dihydro-1H-1,2,4-triazol-1-yl}methyl)-1-(3-methylpyridin-2-yl)-1H-1,2,4-triazole-5-carboxamide], for which the results for the IC50 on human V1a receptor and at human V2 receptor were 5.15 nM and 23.2 nM, respectively. In addition, at human V1a receptor, the “ratio IC50 hV2/hV1a” value is on record as 4.5.

With `Cc1cnccc1-n1nc(Cn2nc(-c3ccc(Cl)cc3)n(C[C@H](O)C(F)(F)F)c2=O)nc1C(N)=O` [Example 3, 3-({3-(4-Chlorophenyl)-5-oxo-4-[(2S)-3,3,3-trifluoro-2-hydroxypropyl]-4,5-dihydro-1H-1,2,4-triazol-1-yl}methyl)-1-(3-methylpyridin-4-yl)-1H-1,2,4-triazole-5-carboxamide], on human V1a receptor, the IC50 amounted to 6.7 nM and the “ratio IC50 hV2/hV1a” value was found to be 14.0. In addition, at human V2 receptor, the IC50 turned out to be 94 nM.

As for `COc1cccnc1-n1nc(Cn2nc(-c3ccc(Cl)cc3)n(C[C@H](O)C(F)(F)F)c2=O)nc1C(N)=O` [Example 4, 3-({3-(4-Chlorophenyl)-5-oxo-4-[(2S)-3,3,3-trifluoro-2-hydroxypropyl]-4,5-dihydro-1H-1,2,4-triazol-1-yl}methyl)-1-(3-methoxypyridin-2-yl)-1H-1,2,4-triazole-5-carboxamide], at human V1a receptor, the IC50 is 7.2 nM and the “ratio IC50 hV2/hV1a” value turned out to be 3.8. The IC50 at human V2 receptor was found to be 27 nM.

For `NC(=O)c1nc(Cn2nc(-c3ccc(Cl)cc3)n(C[C@H](O)C(F)(F)F)c2=O)nn1-c1ncccc1F` [Example 5, 3-({3-(4-Chlorophenyl)-5-oxo-4-[(2S)-3,3,3-trifluoro-2-hydroxypropyl]-4,5-dihydro-1H-1,2,4-triazol-1-yl}methyl)-1-(3-fluoropyridin-2-yl)-1H-1,2,4-triazole-5-carboxamide], the IC50 on human V1a receptor came out at 17.5 nM; at human V2 receptor, 46 nM. Moreover, the “ratio IC50 hV2/hV1a” value on human V1a receptor amounted to 2.6.

Regarding `NC(=O)c1nc(Cn2nc(-c3ccc(Cl)cc3)n(C[C@H](O)C(F)(F)F)c2=O)nn1-c1ccncc1Cl` [Example 6, 3-({3-(4-Chlorophenyl)-5-oxo-4-[(2S)-3,3,3-trifluoro-2-hydroxypropyl]-4,5-dihydro-1H-1,2,4-triazol-1-yl}methyl)-1-(3-chloropyridin-4-yl)-1H-1,2,4-triazole-5-carboxamide], the IC50 on human V1a receptor worked out at 27 nM; at human V2 receptor it was 390 nM. In addition, the “ratio IC50 hV2/hV1a” value at human V1a receptor worked out at 14.4.

As for `COC(=O)c1cccnc1-n1nc(Cn2nc(-c3ccc(Cl)cc3)n(C[C@H](O)C(F)(F)F)c2=O)nc1C(N)=O` [Example 7, Methyl 2-[5-carbamoyl-3-({3-(4-chlorophenyl)-5-oxo-4-[(2S)-3,3,3-trifluoro-2-hydroxypropyl]-4,5-dihydro-1H-1,2,4-triazol-1-yl}methyl)-1H-1,2,4-triazol-1-yl]pyridine-3-carboxylate], at human V1a receptor, the IC50 was 54 nM and the “ratio IC50 hV2/hV1a” value worked out at 6.1. Also, at human V2 receptor, the IC50 was determined as 330 nM.

For the compound `NC(=O)c1nc(Cn2nc(-c3ccc(Cl)cc3)n(C[C@H](O)C(F)(F)F)c2=O)nn1-c1ccncc1F` [Example 8, 3-({3-(4-Chlorophenyl)-5-oxo-4-[(2S)-3,3,3-trifluoro-2-hydroxypropyl]-4,5-dihydro-1H-1,2,4-triazol-1-yl}methyl)-1-(3-fluoropyridin-4-yl)-1H-1,2,4-triazole-5-carboxamide], the IC50 on human V1a receptor was 70 nM; on human V2 receptor it was 248 nM. Further, on human V1a receptor, the “ratio IC50 hV2/hV1a” value turned out to be 3.5.
